# Target: T1, Metabotropic glutamate receptor 1 (Homo sapiens, UniProt Q13255)
# Assay: Effective concentration for half maximal stimulation of PI hydrolysis (mGluR1a)
# T1 sequence (Q13255 whole entry): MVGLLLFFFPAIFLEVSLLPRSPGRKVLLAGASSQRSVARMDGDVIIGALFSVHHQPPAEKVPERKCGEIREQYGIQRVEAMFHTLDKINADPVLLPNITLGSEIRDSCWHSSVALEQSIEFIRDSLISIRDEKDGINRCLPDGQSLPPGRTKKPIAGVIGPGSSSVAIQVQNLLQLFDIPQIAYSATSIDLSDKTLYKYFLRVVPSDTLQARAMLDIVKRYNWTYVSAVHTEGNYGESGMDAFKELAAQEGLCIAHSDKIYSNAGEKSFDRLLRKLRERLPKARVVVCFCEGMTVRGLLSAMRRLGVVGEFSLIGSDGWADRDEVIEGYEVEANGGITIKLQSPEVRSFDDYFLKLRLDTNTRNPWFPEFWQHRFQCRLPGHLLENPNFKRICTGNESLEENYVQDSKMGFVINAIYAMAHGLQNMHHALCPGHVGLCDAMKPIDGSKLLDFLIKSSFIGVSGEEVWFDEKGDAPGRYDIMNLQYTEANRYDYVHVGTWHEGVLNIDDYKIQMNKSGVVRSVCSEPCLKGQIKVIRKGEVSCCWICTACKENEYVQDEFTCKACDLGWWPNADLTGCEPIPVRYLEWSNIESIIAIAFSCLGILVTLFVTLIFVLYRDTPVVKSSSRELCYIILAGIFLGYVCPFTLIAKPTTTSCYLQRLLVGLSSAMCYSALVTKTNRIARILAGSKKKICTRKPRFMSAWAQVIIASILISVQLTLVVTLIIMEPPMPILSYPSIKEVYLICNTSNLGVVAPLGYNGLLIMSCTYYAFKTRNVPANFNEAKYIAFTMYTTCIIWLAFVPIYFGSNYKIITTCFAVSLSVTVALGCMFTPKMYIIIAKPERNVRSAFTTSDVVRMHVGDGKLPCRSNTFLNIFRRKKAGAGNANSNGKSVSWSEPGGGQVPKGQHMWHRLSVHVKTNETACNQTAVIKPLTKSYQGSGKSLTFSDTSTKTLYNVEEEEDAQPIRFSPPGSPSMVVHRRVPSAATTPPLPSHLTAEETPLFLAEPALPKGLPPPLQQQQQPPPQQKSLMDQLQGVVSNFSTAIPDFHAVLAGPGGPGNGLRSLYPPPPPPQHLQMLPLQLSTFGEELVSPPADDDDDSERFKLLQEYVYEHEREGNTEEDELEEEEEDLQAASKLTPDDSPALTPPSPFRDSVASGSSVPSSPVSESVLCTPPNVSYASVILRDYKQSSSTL
row,SMILES,EC50
1,N[C@H](C(=O)O)c1cc(=O)[nH]o1 [IBOTENIC ACID],6 µM
2,N[C@H](C(=O)O)c1cccc(O)c1,68 µM

# Target: T1, Metabotropic glutamate receptor 1
# Assay: Inhibitory concentration for half maximal inhibition of PI hydrolysis (mGluR1a)
row,SMILES,IC50
1,N[C@H](C(=O)O)c1ccc(C(=O)O)c(O)c1,40 µM
2,N[C@H](C(=O)O)c1ccc(C(=O)O)cc1,65 µM

# Now from value to compound:
row,IC50,SMILES
1,214 µM,NC1(C(=O)O)CCc2cc(C(=O)O)ccc21 (stereo unspecified)
2,290 µM,N[C@H](C(=O)O)c1ccc(O)c(C(=O)O)c1
